The numbers were not newly measured in patent US20090053275A1, “Foam/spray producing compositions and dispencing system therefor” (priority 2000, published 2009), which cites them from elsewhere.

In the case of `Oc1cc(Cl)ccc1Oc1ccc(Cl)cc1Cl` [triclosan], the water solubility entry was “not water soluble”.
